Data set [1] in a line: logP determination by HPLC on a reversed-phase column (C18), EEC Directive 79/831 Annex V.A8. Format: physicochemical. Particulars: HPLC on reversed-phase column (C18), acetonitrile/water with formic acid, EEC Directive 79/831 Annex V.A8. Here is the method:
(§1) ^a) Note regarding the determination of the logP values and mass detection: The determination of the given logP values was carried out in accordance with EEC Directive 79/831 Annex V.A8 by HPLC (High Performance Liquid Chromatography) on a reversed-phase column (C18). Agilent 1100 LC system; 50*4.6 Zorbax Eclipse Plus C18 1.8 micron; mobile phase A: acetonitrile (0.1% formic acid); mobile phase B: water (0.09% formic acid); linear gradient from 10% acetonitrile to 95% acetonitrile in 4.25 min, then 95% acetonitrile for a further 1.25 min; oven temperature 55° C.; flow rate: 2.0 ml/min. Mass detection is carried out via an Agilend MSD system.
as §1, with “^*)” for “^a)”

In data set [2] the test system is larvae of the mustard beetle (Phaedon cochleariae). The data set can be described thus: Phaedon cochleariae spray test (PHAECO). The conditions noted are these: Chinese cabbage leaf discs, after 7 days. Format: in vivo. How it is done: H. Phaedon cochleariae-spray Test (PHAECO)
Solvents: 78.0 parts by weight of acetone
(§2) • 1.5 parts by weight of dimethylformamide Emulsifier: alkylaryl polyglycol ether
(§3) To produce a suitable preparation of active compound, 1 part by weight of active compound is dissolved using the stated parts by weight of solvent and made up with water comprising an emulsifier concentration of 1000 ppm until the desired concentration is reached. To produce further test concentrations, the preparation is diluted with emulsifier-containing water.
After 7 days, the efficacy in % is determined. 100% means that all of the beetle larvae have been killed; 0% means that none of the beetle larvae have been killed.

Data set [3] has as its system greenhouse red spider mite (Tetranychus urticae). Briefly: Tetranychus urticae spray test, OP-resistant (TETRUR). It counts as in vivo. Particulars: bean leaf discs, after 6 days. Here is the method: J. Tetranychus urticae-spray Test, OP-Resistant (TETRUR)
(§4) Solvent: 78.0 parts by weight of acetone
as §2, §3
Discs of bean leaves (Phaseolus vulgaris) which are infested by all stages of the greenhouse red spider mite (Tetranychus urticae) are sprayed with an active compound preparation of the desired concentration.
After 6 days, the efficacy in % is determined. 100% means that all of the spider mites have been killed; 0% means that none of the spider mites have been killed.

For data set [4], the system named is caterpillars of the armyworm (Spodoptera frugiperda). The data set can be described thus: Spodoptera frugiperda spray test (SPODFR). It counts as in vivo. Particulars: maize leaf discs, after 7 days. Here is the method:
I. Spodoptera frugiperda-spray Test (SPODFR)
as §4, §2, §3
Leaf discs of maize (Zea mays) are sprayed with an active compound preparation of the desired concentration and, after drying, populated with caterpillars of the armyworm (Spodoptera frugiperda).
After 7 days, the efficacy in % is determined. 100% means that all of the caterpillars have been killed; 0% means that none of the caterpillars have been killed.

In data set [5] the test system is adult cat fleas (Ctenocephalides felis). The data set can be described thus: Ctenocephalides felis in vitro contact test with adult cat fleas (T1). Particulars: after 48 h. How it is done: T1. Ctenocephalides felis—in vitro Contact Tests with Adult Cat Fleas
For the coating of the test tubes, initially 9 mg of active compound are dissolved in 1 ml of acetone p.a. and then diluted with acetone p.a. to the desired concentration. By turning and rocking on an orbital shaker (2 h of rocking rotation at 30 rpm), 250 μl of the solution are distributed homogeneously on the internal walls and the floor of a 25 ml test tube. At 900 ppm active compound solution and 44.7 cm^2 internal surface, an area dose of 5 μg/cm^2 is achieved for homogeneous distribution.
After evaporation of the solvent, the tubes are populated with 5-10 adult cat fleas (Ctenocephalides felis), sealed with a perforated plastic lid and incubated in a horizontal position at room temperature and ambient humidity. After 48 h, the efficacy is determined. To this end, the test tubes are stood upright and the fleas are knocked to the floor of the tube. Fleas which remain motionless on the floor or move in an uncoordinated manner are considered to be dead or moribund.
An efficacy of 100% means that all fleas were dead or moribund. 0% efficacy means that none of the fleas had been damaged.

Consider 24 molecules from patent US9487489B2, “Halogen-substituted pyrazole derivatives as pest-control agents” (BAYER CROPSCIENCE AKTIENGESELLSCHAFT, priority 2013, dated 2016).

Turning to `Cn1nc(C(F)(F)F)c(CO)c1-n1cc(-c2ccc(Cl)c(C(=O)NC3(C#N)CC3)c2)cn1` [Ic-104], in data set [1], the logP – broadly, the decadic logarithm of the partition coefficient of the neutral form, usually between octanol and water – came out at 2.13. In addition, the efficacy in % in data set [2] (application rate 100 g/ha) and in data set [3] (application rate 100 g/ha) was 100% in each case.

`C#CC(C)NC(=O)c1cc(-c2cnn(-c3c(C(F)(F)F)c(C(F)(F)C(F)(F)F)nn3C)c2)ccc1Cl` (stereo not shown) [Ic-193]: the logP in data set [1] came to 3.97. Further, the efficacy in % in data set [2] (application rate 500 g/ha), in data set [4] (application rate 500 g/ha) and in data set [3] (application rate 500 g/ha) was 100% each time.

In turn, `Cn1nc(C(F)(F)C(F)(F)F)c(C(F)(F)F)c1-n1cc(-c2ccc(Cl)c(C(=O)NC3CCC3C[S+](C)[O-])c2)cn1` (stereo not shown) [Ic-123] came in with a logP in data set [1] of 3.09. Besides, in data set [3] (application rate 100 g/ha), the efficacy in % was 100%.

In turn, `CCOC1C(C)C1NC(=O)c1cc(-c2cnn(-c3c(C(F)(F)F)c(C(F)(F)C(F)(F)F)nn3C)c2)ccc1Cl` (stereo not shown) [Ic-183] came in with a logP in data set [1] of 4.34. For the same molecule, the efficacy in % in data set [2] (application rate 500 g/ha), in data set [4] (application rate 500 g/ha) and in data set [3] (application rate 500 g/ha) was 100% throughout.

As to `Cn1nc(C(F)(F)F)c(C(F)(F)F)c1-n1cc(-c2ccc(Cl)c(C(=O)NCCF)c2)cn1` [Ic-168], the logP in data set [1] came to 3.24. Also, the efficacy in % was 100% in data set [2] (application rate 100 g/ha), 83% in data set [4] (application rate 100 g/ha) and 100% in data set [3] (application rate 100 g/ha).

In the case of `Cc1ccc(-c2cnn(-c3c(C(F)(F)F)c(C(F)(F)C(F)(F)F)nn3C)c2)cc1C(=O)Nc1ccc(F)cc1` [Ic-131], in data set [1], the logP came out at 4.57. Also, the efficacy in % in data set [2] (application rate 100 g/ha), in data set [4] (application rate 100 g/ha) and in data set [3] (application rate 100 g/ha) was 100% throughout.

Consider `Cn1nc(C(F)(F)C(F)(F)F)c(C(F)(F)F)c1-n1cc(-c2ccc(Cl)c(C(=O)NC3(C)CC3)c2)cn1` [Ic-200], for which, in data set [1], the logP is recorded as 4.12. Also, the efficacy in % in data set [2] (application rate 500 g/ha), in data set [4] (application rate 500 g/ha) and in data set [3] (application rate 500 g/ha) was 100% throughout.

In data set [1], `CSC1CCC1NC(=O)c1cc(-c2cnn(-c3c(C(F)(F)F)c(C(F)(F)C(F)(F)F)nn3C)c2)ccc1Cl` (stereo not shown) [Ic-119] had a logP of 4.52. Further, the efficacy in % in data set [2] (application rate 100 g/ha) was determined as 100%; in data set [4] (application rate 100 g/ha), 83%; in data set [3] (application rate 100 g/ha), 100%.

Regarding `CCOC1(NC(=O)c2cc(-c3cnn(-c4c(C(F)(F)F)c(C(F)(F)C(F)(F)F)nn4C)c3)ccc2Cl)CC1` [Ic-176], the logP in data set [1] was 4.08. In addition, the efficacy in % in data set [2] (application rate 500 g/ha), in data set [4] (application rate 500 g/ha) and in data set [3] (application rate 500 g/ha) was 100% each time.

`Cn1nc(C(F)(F)F)c(C(F)(F)F)c1-n1cc(-c2ccc(Cl)c(C(=O)NC3CC3F)c2)cn1` (stereo not shown) [Ic-177]: in data set [1], the logP amounted to 3.41. The efficacy in % in data set [2] (application rate 100 g/ha), in data set [4] (application rate 100 g/ha) and in data set [3] (application rate 100 g/ha) was 100% in each case.

As to `Cn1nc(C(F)(F)C(F)(F)F)c(C(F)(F)F)c1-n1cc(-c2ccc(Cl)c(C(=O)NC3(C#N)CC3)c2F)cn1` [Ic-107], the efficacy in % in data set [2] (application rate 500 g/ha), in data set [4] (application rate 500 g/ha) and in data set [3] (application rate 500 g/ha) was 100% in each case. For the same molecule, the “efficacy (dead or moribund fleas)” value in data set [5] (application rate 1 μg/cm^2) and in data set [5] (application rate 5 μg/cm^2) was 100% throughout.

On to `Cn1nc(C(F)(F)C(F)(F)F)c(C(F)(F)F)c1-n1cc(-c2cc(C(=O)NC3CC3)cc3c2OC(F)(F)O3)cn1` [Ic-171], for which the efficacy in % in data set [2] (application rate 500 g/ha) is on record as 100%; in data set [4] (application rate 500 g/ha) it was 100%; in data set [3] (application rate 500 g/ha), 90%.

In the case of `Cn1nc(C(F)(F)C(F)(F)F)c(C(F)(F)F)c1-n1cc(-c2cccc(C(=O)NC3(C#N)CC3)n2)cn1` [Ic-105], the figures for the efficacy in % in data set [2] (application rate 500 g/ha), in data set [4] (application rate 500 g/ha) and in data set [3] (application rate 500 g/ha) were 100%, 100% and 90%, respectively.

Regarding `Cn1nc(C(F)(F)C(F)(F)F)c(C(F)(F)F)c1-n1cc(-c2ccc(Cl)c(C(=O)NC3CC3(Cl)Cl)c2)cn1` (stereo not shown) [Ic-184], the logP in data set [1] came to 4.34. Further, the efficacy in % in data set [2] (application rate 500 g/ha), in data set [4] (application rate 500 g/ha) and in data set [3] (application rate 500 g/ha) was 100% each time.

`Cn1nc(C(F)(F)C(F)(F)F)c(C(F)(F)F)c1-n1cc(-c2ccc(Cl)c(C(=O)NC3CCC3[S+](C)[O-])c2)cn1` (stereo not shown) [Ic-125] gave a logP in data set [1] of 3.17. Also, the efficacy in % in data set [2] (application rate 100 g/ha) was found to be 100%; in data set [4] (application rate 100 g/ha) it was 83%; in data set [3] (application rate 100 g/ha), 100%.

`Cn1nc(C(F)(F)F)c(C(F)(F)F)c1-n1cc(-c2ccc(Cl)c(C(=O)Nc3ccccc3)c2)cn1` [Ic-135] displayed a logP in data set [1] of 4.1. The efficacy in % in data set [2] (application rate 100 g/ha) was determined as 83%; in data set [4] (application rate 100 g/ha) it was 100%; in data set [3] (application rate 100 g/ha), 100%.

Consider `CC#CC(C)NC(=O)c1cc(-c2cnn(-c3c(C(F)(F)F)c(C(F)(F)C(F)(F)F)nn3C)c2)ccc1Cl` (stereo not shown) [Ic-198], for which, in data set [1], the logP is given as 4.27. The efficacy in % in data set [2] (application rate 500 g/ha), in data set [4] (application rate 500 g/ha) and in data set [3] (application rate 500 g/ha) was 100% each time.

Turning to `Cn1nc(C(F)(F)F)c(C(F)(F)F)c1-n1cc(-c2ccc(Cl)c(C(=O)NCC(F)F)c2)cn1` [Ic-170], in data set [1], the logP is given as 3.43. The efficacy in % in data set [2] (application rate 100 g/ha), in data set [4] (application rate 100 g/ha) and in data set [3] (application rate 100 g/ha) was 100% throughout.

As to `Cn1nc(C(F)(F)F)c(C(F)(F)F)c1-n1cc(-c2ccc(Cl)c(C(=O)NCC(F)(F)F)c2)cn1` [Ic-169], the logP in data set [1] is 3.71. Besides, the efficacy in % in data set [2] (application rate 100 g/ha), in data set [4] (application rate 100 g/ha) and in data set [3] (application rate 100 g/ha) was 100% each time.

In turn, `Cn1nc(C(F)(F)C(F)(F)F)c(C(F)(F)F)c1-n1cc(-c2ccc([S+](C)[O-])c(C(=O)NC3CC3)c2)cn1` (stereo not shown) [Ic-189] yielded a logP in data set [1] of 3.19. Also, the efficacy in % in data set [2] (application rate 100 g/ha) and in data set [3] (application rate 100 g/ha) was 100% each time.

Molecule `Cc1nn(-c2c(C(F)(F)F)c(C(F)(F)C(F)(F)F)nn2C)c(C)c1-c1ccc(Cl)c(C(=O)NC2CC2)c1` [Ic-9] showed a logP in data set [1] of 4.02. In data set [3] (application rate 100 g/ha), this molecule showed an efficacy in % of 90%.

`Cn1nc(C(F)(F)C(F)(F)F)c(C(F)(F)F)c1-n1cc(-c2ccc(Cl)c(C(=O)NC3(C#N)CSC3)c2)cn1` [Ic-128] had a logP in data set [1] of 4.38. The efficacy in % in data set [2] (application rate 100 g/ha), in data set [4] (application rate 100 g/ha) and in data set [3] (application rate 100 g/ha) was 100% each time.

`Cn1nc(C(F)(F)C(F)(F)F)c(C(F)(F)F)c1-n1cc(-c2ccc(Cl)c(C(=O)NC3CCC3S(C)(=O)=O)c2)cn1` (stereo not shown) [Ic-124] came in with a logP in data set [1] of 3.47. Further, the efficacy in % in data set [2] (application rate 100 g/ha), in data set [4] (application rate 100 g/ha) and in data set [3] (application rate 100 g/ha) was 100% throughout.

For the molecule `Cn1nc(C(F)(F)F)c(CO)c1-n1cc(-c2ccc(Cl)c(C(=O)NC3CC3)c2)cn1` [Ic-69], in data set [1], the logP is given as 2.15. The efficacy in % was found to be 83% in data set [2] (application rate 500 g/ha) and 90% in data set [3] (application rate 500 g/ha).
